# Laboratory results as given in patent EP2518054A1, “AMIDE COMPOUND” (Takeda Pharmaceutical Company Limited, priority 2009, dated 2011).
# Target: T1, human GPR52 (Homo sapiens, UniProt Q9Y2T5)
# T1 construct: expressed in transfected cells; host or cells: CHO(dhfr-) cells
# Assay: Increase of intracellular cAMP concentration in human GPR52-expressing CHO cell (AlphaScreen cAMP assay)
# Type: cell-based
# Settings: CHO, 1µM test compound; 100% = cAMP with 1 µM Reference Example 79, 0% = DMSO; human GPR52-expressing CHO(dhfr-) cells, 37°C, 30 min; read-out: GPR52 agonist activity (%)
# Procedure: Increase of intracellular cAMP concentration in human GPR52-expressing CHO cell
# Using OptiPlate-384 (PerkinElmer Inc.), 1×10^4 human GPR52-expressing CHO(dhfr-) cells were incubated together with various concentration(10^-5µM - 10µm) of a test compound in an assay buffer (30 µL, HBSS (containing Ca^2+ and Mg^2+), 0.5% BSA, 100 µM IBMX, 100 µM Ro20-1724, 5 mM HEPES (pH 7.55)) at 37°C for 30 min. Thereafter, according to the protocol of AlphaScreen CAMP Assay Kit (PerkinElmer Inc.), the intracellular cAMP concentration was measured by EnVision (PerkinElmer Inc.). The GPR52 agonist activity was calculated, assuming the intracellular cAMP concentration in the presence of […] N-(2-hydroxyethyl)-3-[2-[3-(trifluoromethyl)benzyl]-1-benzofuran-4-yl]benzamide (Reference Example 79) to be 100% and assuming the intracellular cAMP concentration when DMSO was added instead of the test compound to be 0%.
# T1 sequence (Q9Y2T5 whole entry): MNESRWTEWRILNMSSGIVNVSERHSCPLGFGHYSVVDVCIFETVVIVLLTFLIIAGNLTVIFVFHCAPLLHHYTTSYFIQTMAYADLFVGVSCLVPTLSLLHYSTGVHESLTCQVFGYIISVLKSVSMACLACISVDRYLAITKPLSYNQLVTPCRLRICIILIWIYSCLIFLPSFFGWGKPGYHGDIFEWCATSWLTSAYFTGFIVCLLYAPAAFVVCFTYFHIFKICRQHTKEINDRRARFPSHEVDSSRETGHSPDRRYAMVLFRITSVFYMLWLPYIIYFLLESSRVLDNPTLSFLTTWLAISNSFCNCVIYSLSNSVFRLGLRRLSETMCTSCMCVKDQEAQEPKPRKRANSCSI
row,Compound,activity at 1 µM [%]
1,"Cc1nc(-c2cccc3cc(Cc4cccc(C(F)(F)F)c4)sc23)oc1C(=O)NCC(N)=O [Example 11, N-(2-amino-2-oxoethyl)-4-methyl-2-[2-[3-(trifluoromethyl)benzyl]-1-benzothiophen-7-yl]-1,3-oxazole-5-carboxamide]",70
2,"Cc1cn(-c2cccc3cc(Cc4cccc(C(F)(F)F)c4)sc23)cc1C(=O)NCC(N)=O [Example 12, N-(2-amino-2-oxoethyl)-4-methyl-1-[2-[3-(trifluoromethyl)benzyl]-1-benzothiophen-7-yl]-1H-pyrrole-3-carboxamide]",107
3,"COCCNC(=O)c1cnn(-c2cccc3cc(Cc4cccc(C(F)(F)F)c4)sc23)c1C [Example 13, N-(2-methoxyethyl)-5-methyl-1-[2-[3-(trifluoromethyl)benzyl]-1-benzothiophen-7-yl]-1H-pyrazole-4-carboxamide]",79
4,"Cc1nn(-c2cccc3cc(Cc4cccc(C(F)(F)F)c4)sc23)cc1C(=O)NCC(N)=O [Example 16, N-(2-amino-2-oxoethyl)-3-methyl-1-[2-[3-(trifluoromethyl)benzyl]-1-benzothiophen-7-yl]-1H-pyrazole-4-carboxamide]",94
5,"O=C(NCCO)c1cn(-c2cccc3cc(Cc4cccc(C(F)(F)F)c4)sc23)nc1C(F)(F)F [Example 20, N-(2-hydroxyethyl)-3-(trifluoromethyl)-1-[2-[3-(trifluoromethyl)benzyl]-1-benzothiophen-7-yl]-1H-pyrazole-4-carboxamide]",79
6,"NC(=O)CNC(=O)c1cn(-c2cccc3cc(Cc4cccc(C(F)(F)F)c4)sc23)nc1C(F)(F)F [Example 21, N-(2-amino-2-oxoethyl)-3-(trifluoromethyl)-1-[2-[3-(trifluoromethyl)benzyl]-1-benzothiophen-7-yl]-1H-pyrazole-4-carboxamide]",94
7,"NC(=O)c1cn(-c2cccc3cc(Cc4cccc(C(F)(F)F)c4)sc23)nc1C(F)(F)F [Example 22, 3-(trifluoromethyl)-1-[2-[3-(trifluoromethyl)benzyl]benzothiophen-7-yl]-1H-pyrazole-4-carboxamide]",93
8,"CC(C)c1nn(-c2cccc3cc(Cc4cccc(C(F)(F)F)c4)sc23)cc1C(=O)NCCO [Example 26, N-(2-hydroxyethyl)-3-(1-methylethyl)-1-[2-[3-(trifluoromethyl)benzyl]-1-benzothiophen-7-yl]-1H-pyrazole-4-carboxamide]",96
9,"NC(=O)CNC(=O)c1cn(-c2cccc3cc(Cc4cccc(C(F)(F)F)c4)sc23)nc1C1CC1 [Example 28, N-(2-amino-2-oxoethyl)-3-cyclopropyl-1-[2-[3-(trifluoromethyl)benzyl]-1-benzothiophen-7-yl]-1H-pyrazole-4-carboxamide]",95
10,"O=C(NCCO)c1cn(-c2cccc3cc(Cc4cccc(C(F)(F)F)c4)sc23)nc1C1CC1 [Example 29, 3-cyclopropyl-N-(2-hydroxyethyl)-1-[2-[3-(trifluoromethyl)benzyl]-1-benzothiophen-7-yl]-1H-pyrazole-4-carboxamide]",97
11,"Cc1cn(-c2cccc3cc(Cc4cccc(C(F)(F)F)c4)sc23)nc1C(=O)NCC(N)=O [Example 30, N-(2-amino-2-oxoethyl)-4-methyl-1-[2-[3-(trifluoromethyl)benzyl]-1-benzothiophen-7-yl]-1H-pyrazole-3-carboxamide]",96
12,"Cc1cc(C(=O)NCC(N)=O)n(-c2cccc3cc(Cc4cccc(C(F)(F)F)c4)sc23)n1 [Example 31, N-(2-amino-2-oxoethyl)-3-methyl-1-[2-[3-(trifluoromethyl)benzyl]-1-benzothiophen-7-yl]-1H-pyrazole-5-carboxamide]",84
13,"Cc1cc(C(=O)NCCO)n(-c2cccc3cc(Cc4cccc(C(F)(F)F)c4)sc23)n1 [Example 33, N-(2-hydroxyethyl)-3-methyl-1-[2-[3-(trifluoromethyl)benzyl]-1-benzothiophen-7-yl]-1H-pyrazole-5-carboxamide]",79
14,"Cc1nc(-c2cccc3cc(Cc4cccc(C(F)(F)F)c4)sc23)sc1C(N)=O [Example 36, 4-methyl-2-[2-[3-(trifluoromethyl)benzyl]-1-benzothiophen-7-yl]-1,3-thiazole-5-carboxamide]",96
15,"Cc1nc(-c2cccc3cc(Cc4cccc(C(F)(F)F)c4)sc23)sc1C(=O)NCC(N)=O [Example 37, N-(2-amino-2-oxoethyl)-4-methyl-2-[2-[3-(trifluoromethyl)benzyl]-1-benzothiophen-7-yl]-1,3-thiazole-5-carboxamide]",97
16,"Cc1nc(-c2cccc3cc(Cc4cccc(C(F)(F)F)c4)sc23)sc1C(=O)NCCC#N [Example 38, N-(2-cyanoethyl)-4-methyl-2-[2-[3-(trifluoromethyl)benzyl]-1-benzothiophen-7-yl]-1,3-thiazole-5-carboxamide]",101
17,"Cc1nc(-c2cccc3cc(Cc4cccc(C(F)(F)F)c4)sc23)sc1C(=O)NCCO [Example 39, N-(2-hydroxyethyl)-4-methyl-2-[2-[3-(trifluoromethyl)benzyl]-1-benzothiophen-7-yl]-1,3-thiazole-5-carboxamide]",93

# Continued, values first:
row,activity at 1 µM [%],Compound
1,90,"COCCNC(=O)c1sc(-c2cccc3cc(Cc4cccc(C(F)(F)F)c4)sc23)nc1C [Example 40, N-(2-methoxyethyl)-4-methyl-2-[2-[3-(trifluoromethyl)benzyl]-1-benzothiophen-7-yl]-1,3-thiazole-5-carboxamide]"
2,92,"Cc1nc(-c2cccc3oc(Cc4cccc(C(F)(F)F)c4)cc23)sc1C(N)=O [Example 44, 4-methyl-2-[2-[3-(trifluoromethyl)benzyl]-1-benzofuran-4-yl]-1,3-thiazole-5-carboxamide]"
3,90,"Cc1nc(-c2cccc3oc(Cc4cccc(C(F)(F)F)c4)cc23)sc1C(=O)NCCO [Example 46, N-(2-hydroxyethyl)-4-methyl-2-[2-[3-(trifluoromethyl)benzyl]-1-benzofuran-4-yl]-1,3-thiazole-5-carboxamide]"
4,93,"Cc1nc(-c2cccc3cc(Cc4cccc(C(F)(F)F)c4)sc23)n(C)c1C(=O)NCC(N)=O [Example 47, N-(2-amino-2-oxoethyl)-1,4-dimethyl-2-[2-[3-(trifluoromethyl)benzyl]-1-benzothiophen-7-yl]-1H-imidazole-5-carboxamide]"
5,89,"Cc1nc(-c2cccc3cc(Cc4cccc(C(F)(F)F)c4)sc23)n(C)c1C(N)=O [Example 48, 1,4-dimethyl-2-[2-[3-(trifluoromethyl)benzyl]-1-benzothiophen-7-yl]-1H-imidazole-5-carboxamide]"
6,79,"Cc1c(C(N)=O)nc(-c2cccc3cc(Cc4cccc(C(F)(F)F)c4)sc23)n1C [Example 50, 1,5-dimethyl-2-[2-[3-(trifluoromethyl)benzyl]-1-benzothiophen-7-yl]-1H-imidazole-4-carboxamide]"
7,102,"COCCNC(=O)c1c(C)nn(-c2cccc3cc(Cc4cccc(C(F)(F)F)c4)sc23)c1C [Example 51, N-(2-methoxyethyl)-3,5-dimethyl-1-[2-[3-(trifluoromethyl)benzyl]-1-benzothiophen-7-yl]-1H-pyrazole-4-carboxamide]"
8,107,"Cc1nn(-c2cccc3cc(Cc4cccc(C(F)(F)F)c4)sc23)c(C)c1C(=O)NCCO [Example 52, N-(2-hydroxyethyl)-3,5-dimethyl-1-[2-[3-(trifluoromethyl)benzyl]-1-benzothiophen-7-yl]-1H-pyrazole-4-carboxamide]"
9,102,"Cc1nn(-c2cccc3cc(Cc4cccc(C(F)(F)F)c4)sc23)c(C)c1C(=O)NCC(N)=O [Example 53, N-(2-amino-2-oxoethyl)-3,5-dimethyl-1-[2-[3-(trifluoromethyl)benzyl]-1-benzothiophen-7-yl]-1H-pyrazole-4-carboxamide]"
10,101,"Cc1nn(-c2cccc3cc(Cc4cccc(C(F)(F)F)c4)sc23)c(C)c1C(N)=O [Example 54, 3,5-dimethyl-1-[2-[3-(trifluoromethyl)benzyl]-1-benzothiophen-7-yl]-1H-pyrazole-4-carboxamide]"
11,96,"Cc1nn(-c2cccc3cc(Cc4cc(F)cc(Cl)c4)sc23)c(C)c1C(=O)NCC(N)=O [Example 55, N-(2-amino-2-oxoethyl)-1-[2-(3-chloro-5-fluorobenzyl)-1-benzothiophen-7-yl]-3,5-dimethyl-1H-pyrazole-4-carboxamide]"
12,105,"Cc1nn(-c2cccc3cc(Cc4cc(F)cc(Cl)c4)sc23)c(C)c1C(=O)NCCO [Example 56, 1-[2-(3-chloro-5-fluorobenzyl)-1-benzothiophen-7-yl]-N-(2-hydroxyethyl)-3,5-dimethyl-1H-pyrazole-4-carboxamide]"

# Same assay, conditions: concentration of the test compound at which it shows 50% activity; human GPR52-expressing CHO(dhfr-) cells; read-out: GPR52 agonist activity EC50
row,EC50 [nM],Compound
1,290,"Cc1nc(-c2cccc3cc(Cc4cccc(C(F)(F)F)c4)sc23)oc1C(=O)NCC(N)=O [Example 11, N-(2-amino-2-oxoethyl)-4-methyl-2-[2-[3-(trifluoromethyl)benzyl]-1-benzothiophen-7-yl]-1,3-oxazole-5-carboxamide]"
2,49,"Cc1nc(-c2cccc3nn(Cc4cccc(C(F)(F)F)c4)cc23)sc1C(N)=O [Example 41, 4-methyl-2-[2-[3-(trifluoromethyl)benzyl]-2H-indazol-4-yl]-1,3-thiazole-5-carboxamide]"
3,6.9,"Cc1nn(-c2cccc3cc(Cc4cc(F)cc(Cl)c4)sc23)c(C)c1C(=O)NCCO [Example 56, 1-[2-(3-chloro-5-fluorobenzyl)-1-benzothiophen-7-yl]-N-(2-hydroxyethyl)-3,5-dimethyl-1H-pyrazole-4-carboxamide]"
